Reference: patent US10053434B2, “Histone deacetylase inhibitors and compositions and methods of use thereof” (CHDI Foundation, Inc., priority 2015, dated 2018)
Counter-ions that a name gives are not always drawn.

Legend:
[1] = system: Cellular Class IIa HDAC activity; assay: Inhibition of cellular Class IIa HDAC activity; Cell (Lys-TFA) substrate, Jurkat E6-1 cells; type: cell-based; conditions: Boc-Lys(TFA)-AMC substrate
Excerpt: Example 29: Analysis of Inhibition of Cellular Class IIa HDAC Activity with Class IIa Histone Deacetylase (HDAC) Inhibitors; Cell (Lys-TFA) Substrate
(§1) The potency of Class IIa Histone Deacetylase (HDAC) inhibitors was quantified by measuring the cellular histone deacetylase enzymatic activity using the fluorogenic substrate, Boc-Lys(TFA)-AMC. After penetration in Jurkat E6-1 cells, the substrate was deacetylated to Boc-Lys-AMC. After cell lysis and cleavage by trypsin, the fluorophore AMC was released from the deacetylated substrate only. The fluorescence of the sample was directly related to the histone deacetylase activity in the sample.
Jurkat E6.1 Cell Culture and Plating.
(§2) Jurkat E6.1 cells were cultured according to standard cell culture protocols in Jurkat E6.1 Growth Media (RPMI without phenol red, 10% FBS, 10 mM HEPES, and 1 mM Sodium Pyruvate). Jurkat E6.1 cells were counted using a Coulter Counter and resuspended in Jurkat E6.1 growth media at a concentration of 75,000 cells/35 μL. 35 μL or 75,000 cells was seeded into Greiner microtitre assay plates. The plates were then incubated at 37° C. and 5% CO2 while other assay components were being prepared.
(§3) Serially Dilute HDAC Inhibitor Compounds.
(§4) Serial dilutions of the HDAC inhibitors and control reference compound (1-(5-(3-((4-(1,3,4-oxadiazol-2-yl)phenoxy)methyl)-1,2,4-oxadiazol-5-yl)thiophen-2-yl)-2,2,2-trifluoroethanone) were made by first resuspending the lyophilized compound to a final concentration of 10 mM in 100% DMSO. Stocks of 70 μL aliquots of the 10 mM compound in DMSO were prepared and stored at −20° C. From one stock aliquot of each tested compound and the reference compound, a 16-point serial dilution was prepared according to Table 1 using a 125 μL 16-channel Matrix multi-channel pipette.
(§5) 2 μL (200×) of each diluted solution and each control (full activity: 100% DMSO alone or full inhibition 1 mM) was stamped into V-bottom polypropylene 384-well compound plates using either the Bravo, Janus, or 12.5 μL 16-channel Matrix multi-channel pipette. Each well with the 200× compound solution was diluted 1:20 by the addition of 38 μL Jurkat assay buffer+DMSO (9.5% DMSO, RPMI without phenol red, 0.09% FBS, 9 mM Hepes, and 0.9 mM Sodium Pyruvate equilibrated to r.t.)
Prepare 5× (500 μM) Boc-Lys(TFA)-AMC Substrate.
(§6) 5× (500 μM) substrate was prepared just prior to the addition to the assay. The 5× substrate was prepared by diluting a 100 mM Boc-Lys(TFA)-AMC in DMSO solution 1:200 by adding it drop-wise to Jurkat assay medium (RPMI without phenol red, 0.1% FBS, 10 mM Hepes, and 1 mM Sodium Pyruvate equilibrated to 37° C.) while vortexing at slow speed to prevent precipitation.
(§7) 10 mL of 3× lysis buffer was prepared with 8.8 mL of 3× stock lysis buffer (50 mM Tris-HCl, pH 8.0, 137 mM NaCl, 2.7 mM KCl, 1 mM MgCl2, 1% Nonidet P40 Substitute equilibrated to r.t.) and 1.2 mL of 3 mg/mL Trypsin equilibrated to r.t.
(§8) 5 μL of each solution of 1:20 diluted compound from above was transferred to the Greiner microtitre assay plates with 75,000 cells/well using the Bravo. Cells were then incubated for 2 hours at 37° C. and 5% CO2. The assay was then started by adding 10 μL of 5× (500 μM) substrate to the assay plate using either the Bravo or 16-channel Matrix multi-channel pipette. The cells were then incubated for 3 hours at 37° C. and 5% CO2. Next, 25 μL of 3× lysis buffer was added to each well using either the 125 μL 16 channel pipette or the Bravo. The assay plate was then incubated overnight (15-16 hours) at 37° C. and 5% CO2. The following day, the plates were shaken on an orbital shaker for 1 minute at 900 rpm. Finally the top read fluorescence (Excitation: 355 nm, Emission: 460 nm) was measured using PerkinElmer EnVision.

[2] = target: human catalytic domain HDAC4 protein (amino acids 648-1032) (Homo sapiens (Human), UniProt P56524); assay: HDAC4 catalytic domain enzymatic activity, fluorogenic substrate Boc-Lys(TFA)-AMC; conditions: read-out: HDAC4 Biochemical IC50
Excerpt: Example 25: Analysis of Inhibition of HDAC4 with Class IIa Histone Deacetylase (HDAC) Inhibitors
The potency of Class IIa Histone Deacetylase (HDAC) inhibitors was quantified by measuring the Histone Deacetylase 4 (HDAC4) catalytic domain enzymatic activity using the fluorogenic substrate, Boc-Lys(TFA)-AMC. The substrate was deacetylated to Boc-Lys-AMC by HDAC4. […] The fluorescence of the sample was directly related to the histone deacetylase activity in the sample.
as §3
as §4, with “dimethyl sulfoxide (DMSO).” for “DMSO.”, “60” for “70”, “pipette (Matrix Technologies Ltd).” for “pipette.”
2 μL (200×) of each diluted solution and each control (full activity: 100% DMSO alone or full inhibition 1 mM) was stamped into V-bottomed polypropylene 384-well compound plates using either the Bravo (384-well head from Agilent) or 12.5 μL 16-channel Matrix multi-channel pipette (Matrix Technologies Ltd). Each well with the 200× compound solution was diluted 1:20 by the addition of 38 μL assay buffer+DMSO (10.5% DMSO, 45 mM Tris-HCl, 123 mM NaCl, 2.4 mM KCl, and 0.9 mM MgCl2 at pH 8.0 and equilibrated to r.t.).
Prepare HDAC4 Catalytic Domain Enzyme (0.2 μg/mL).
The HDAC4 catalytic domain enzyme was human catalytic domain HDAC4 protein (amino acids 648-1032) with a C-terminal 6× histidine tag, produced by BioFocus. A working solution of enzyme was prepared from a […] stock aliquot of HDAC4 catalytic domain (thawed on ice) diluted to 0.2 μg/mL with assay buffer (50 mM Tris-HCl, 137 mM NaCl, 2.7 mM KCl, and 1 mM MgCl2 at pH 8 and equilibrated to r.t.) just prior to the addition of the enzyme to the assay.
Prepare 5× (50 μM) Boc-Lys(TFA)-AMC Substrate.
5× (50 μM) substrate was prepared just prior to the addition to the assay. A 1 mM substrate stock was made by diluting a 100 mM Boc-Lys(TFA)-AMC in DMSO solution 1:100 by adding it drop-wise to assay buffer (equilibrated to r.t.) while vortexing at slow speed to prevent precipitation. The 5× substrate was prepared by diluting the 1 mM substrate solution 1:20 by adding it drop-wise to assay buffer (equilibrated to r.t.) while vortexing at slow speed to prevent precipitation.
Prepare 3× (30 μM) Developer/Stop Solution.
3× (30 μM) Developer/Stop Solution was prepared just prior to addition to the plate by diluting a stock solution of 10 mM reference compound 1:333 in 25 mg/mL trypsin (PAA Laboratories Ltd.) equilibrated to r.t.
5 μL of each solution of 1:20 diluted compound from above was transferred to a clear bottomed, black, 384-well assay plate using the Bravo or the Janus (384-well MDT head from Perkin Elmer). Using a 16-channel Matrix multi-channel pipette, 35 μL of the working solution of HDAC4 catalytic domain enzyme (0.2 μg/mL in assay buffer) was transferred to the assay plate. The assay was then started by adding 10 μL of 5× (50 μM) substrate to the assay plates using either the Bravo, Janus or 16-channel Matrix multi-channel pipette. The assay plate was then shaken for two minutes on an orbital shaker at 900 rpm (rotations per minute). Next the plate was incubated for 15 minutes at 37° C. The reaction was stopped by adding 25 μL of 3× (30 μM) developer/stop solution to the assay plates using either the Bravo, Janus or a 16-channel Matrix multi-channel pipette. Assay plates were then shaken for 5 minutes on an orbital shaker at 1200 rpm. Next, the assay plates were incubated at 37° C. for 1 hour in a tissue culture incubator. […]

[3] = system: Cellular Class I HDAC activity; assay: Inhibition of cellular Class I HDAC activity; Cell (Lys-Ac) substrate, Jurkat E6-1 cells; type: cell-based; conditions: Boc-Lys(Ac)-AMC substrate
Excerpt: as §1, §2, §4, §5, §6, §7, §8
Example 30: Analysis of Inhibition of Cellular Class I HDAC Activity with Class IIa Histone Deacetylase (HDAC) Inhibitors; Cell (Lys-Ac) Substrate
The Class I HDAC activity of Class IIa Histone Deacetylase (HDAC) inhibitors was quantified by measuring the cellular histone deacetylase enzymatic activity using the fluorogenic substrate, Boc-Lys(Ac)-AMC. This was performed according to the procedure in Example 29, using Boc-Lys(Ac)-AMC substrate in place of Boc-Lys(TFA)-AMC.

Sequence of human catalytic domain HDAC4 protein (amino acids 648-1032) (P56524 648-1032): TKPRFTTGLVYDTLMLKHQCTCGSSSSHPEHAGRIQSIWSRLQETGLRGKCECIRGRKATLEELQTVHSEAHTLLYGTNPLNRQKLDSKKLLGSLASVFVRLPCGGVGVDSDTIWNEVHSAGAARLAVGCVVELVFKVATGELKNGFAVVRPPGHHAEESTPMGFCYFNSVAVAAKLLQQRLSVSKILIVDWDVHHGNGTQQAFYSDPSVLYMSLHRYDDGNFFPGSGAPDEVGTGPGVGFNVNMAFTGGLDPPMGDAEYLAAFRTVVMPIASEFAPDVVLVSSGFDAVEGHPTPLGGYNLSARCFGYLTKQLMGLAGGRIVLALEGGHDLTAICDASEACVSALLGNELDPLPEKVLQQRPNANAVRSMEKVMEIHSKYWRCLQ

IC50 [1] [nM] | IC50 [2] [nM] | IC50 [3] [nM] | SMILES
18 | 9 | 2400 | C[C@H](CN1CCc2ccccc2C1)NC(=O)c1ccc(-c2noc(C(F)(F)F)n2)cc1 [Example 7, (R)—N-(1-(3,4-Dihydroisoquinolin-2(1H)-yl)propan-2-yl)-4-(5-(trifluoromethyl)-1,2,4-oxadiazol-3-yl)benzamide]
9 | 3 | 970 | C[C@H](CN1CCCC2(CC2)C1)NC(=O)c1ccc(-c2noc(C(F)(F)F)n2)cc1 [Example 11, (R)—N-(1-(5-Azaspiro[2.5]octan-5-yl)propan-2-yl)-4-(5-(trifluoromethyl)-1,2,4-oxadiazol-3-yl)benzamide]
190 | 6 | 12700 | C[C@H](CN1CCc2ccncc2C1)NC(=O)c1ccc(-c2noc(C(F)(F)F)n2)cc1 [Example 18, (R)—N-(1-(3,4-dihydro-2,7-naphthyridin-2(1H)-yl)propan-2-yl)-4-(5-(trifluoromethyl)-1,2,4-oxadiazol-3-yl)benzamide]
28 | 12 | 690 | C[C@H](CN1CC2CCCC2C1)NC(=O)c1ccc(-c2noc(C(F)(F)F)n2)cc1 (stereo partly drawn) [Example 17, 2-((R)-2-(4-(5-(Trifluoromethyl)-1,2,4-oxadiazol-3-yl)benzamido)propyl)octahydrocyclopenta[c]pyrrol-2-ium formate]
30 | 11 | 1700 | C[C@H](CN1CCCCCC1)NC(=O)c1ccc(-c2noc(C(F)(F)F)n2)cc1 [Example 13, (R)—N-(1-(Azepan-1-yl)propan-2-yl)-4-(5-(trifluoromethyl)-1,2,4-oxadiazol-3-yl)benzamide]

Continued, compound first:

SMILES | IC50 [1] [nM] | IC50 [2] [nM] | IC50 [3] [nM]
C[C@H](CN1CC(c2ccccc2)C1)NC(=O)c1ccc(-c2noc(C(F)(F)F)n2)cc1 [Example 8, (R)—N-(1-(3-Phenylazetidin-1-yl)propan-2-yl)-4-(5-(trifluoromethyl)-1,2,4-oxadiazol-3-yl)benzamide] | 39 | 14 | 710
Cc1cc(C(=O)N[C@H](C)CN2CCC[C@@H]2C)ccc1-c1noc(C(F)(F)F)n1 [Example 1, (2S)-2-Methyl-1-((R)-2-(3-methyl-4-(5-(trifluoromethyl)-1,2,4-oxadiazol-3-yl)benzamido)propyl)pyrrolidin-1-ium formate] | 1600 | 100 | > 50000
C[C@H](CN1CC2C(C1)C2(C)C)NC(=O)c1ccc(-c2noc(C(F)(F)F)n2)cc1 (stereo partly drawn) [Example 22, N-((2R)-1-(6,6-Dimethyl-3-azabicyclo[3.1.0]hexan-3-yl)propan-2-yl)-4-(5-(trifluoromethyl)-1,2,4-oxadiazol-3-yl)benzamide] | 86 | 20 | 6100
C[C@H](CN1CCC[C@@H]1C)NC(=O)c1ccc(-c2noc(C(F)(F)F)n2)c(F)c1 [Example 23, (2S)-1-((R)-2-(3-Fluoro-4-(5-(trifluoromethyl)-1,2,4-oxadiazol-3-yl)benzamido)propyl)-2-methylpyrrolidin-1-ium formate] | 72 | 9 | 21400
C[C@H](CN1CCC12CCC2)NC(=O)c1ccc(-c2noc(C(F)(F)F)n2)cc1 [Example 14, (R)—N-(1-(1-Azaspiro[3.3]heptan-1-yl)propan-2-yl)-4-(5-(trifluoromethyl)-1,2,4-oxadiazol-3-yl)benzamide] | 180 | 16 | 7700
C[C@H](CN1CCCC(OC(F)F)C1)NC(=O)c1ccc(-c2noc(C(F)(F)F)n2)cc1 (single isomer, unassigned) [Example 10] | 7 | 3 | 1500
